{"source": "patent US4260630A", "about": "“Skin diseases” (priority 1977, dated 1981)", "key": {"calf thymus DNA": {"tested_on": "calf thymus DNA", "test": "Photobinding to native calf thymus DNA in vitro", "assay_type": "binding"}, "yeast DNA": {"tested_on": "yeast DNA", "test": "Photobinding to yeast DNA in vivo (radiolabelled drug plus 365 nm light)", "assay_type": "binding, Saccharomyces cerevisiae", "procedure": "The radioactivity of an aliquot (0.1 ml) of this solution was measured in 5 ml of scintillation mixture (Nuclear Entreprise, Ltd., Edinburgh, Scotland, NE 250).\nFor the in vivo determinations stationary phase cells of the haploid wild type strain N 123 were prepared as previously described.\n2 ml cell suspensions were exposed to several doses of 365 nm light. In parallel, non irradiated samples were incubated for the same periods. Immediately after incubation and/or irradiation, the samples were centrifuged and the pellet was washed 3 times with 5 ml of saline (0.9% NaCl). The washed cell pellet was resuspended in 1 ml of saline and 1 ml of 2 N NaOH was added in order to hydrolyze the RNA. The suspension was incubated overnight in the dark at room temperature, then cooled down on ice, and 2 ml of 50% TCA were added slowly. The samples were left 20 minutes on ice and the precipitated DNA was filtered on a glass fiber filter disc (Whatman GF/A, 2.1 cm diameter). In some cases the filtrate containing the acid-soluble material was kept aside, and the radioactivity of an aliquot added to 5 ml of NE250 scintillation mixture measured. The precipitate was washed 3 times with 5 ml of 5% cold TCA and 5 ml of 70% ethanol. The filters were then dried and the radioactivity measured in plastic counting vials containing 5 ml of scintillation mixture (NE 250) in a Tricarb Packard scintillation spectrophotometer."}, "Saccharomyces cerevisiae": {"tested_on": "Saccharomyces cerevisiae", "procedure": "A wild-type strain 211-1aM (29) of Saccharomyces cerivisiae was used, and the following mutants derived from it: S24-12c rad2-20 deficient in excision repair and S25-13b rad9-4 likely to be blocked in a recombinational repair pathway; a double mutant S 2057NL-24 rad2-20 -rad9-4 clone B was obtained by tetrad analysis of a heterozygote [formula]\nThe media and culture conditions used were as described in D. Averbeck, E. Moustacchi, (1975) Biochim. Biophys. Acta, 395, 393-404.\n10^6 cells/ml in saline (0.9% NaCl) were treated for 30 minutes with the drugs at a final concentration of 10 μg/ml and 1.2% ethanol present.\nA Philips HPW 125 culot Edison high pressure mercury lamp was used with maximal output at the wavelength 365 nm. The irradiation dose measured by actinometry was 10 J/m^2 per sec., using the following set up: 10 ml of actinometer solution (or the cell suspension, usually 1×10^6 cells/ml), stirred continuously by a magnetic stirrer, were irradiated at room temperature in an open Petri dish of 10 cm diameter at a distance of 10 cm from the center of the light bulb which was mounted horizontally. A 2 mm thick pyrex glass sheet (20×25 cm) was placed in the center of the light beam to cut out UV light of wavelength below 340 nm. Overheating was prevented either by a continuous flow of compressed air between the light bulb and the glass or by a pyrex glass water filter of 3 cm total thickness. An accumulative irradiation dose was given to the same sample. After each dose 0.1 ml of irradiated cell suspension was taken, diluted and aliquots plated."}, "cutaneous tissue": {"tested_on": "cutaneous tissue", "details": "in vivo; cited from earlier work"}, "[1]": {"details": "5 min, 6.3 × 10^4 ergs.mm^-2 365 nm"}, "[2]": {"details": "10 min, 12.6 × 10^4 ergs.mm^-2 365 nm"}, "[3]": {"details": "15 min, 18.9 × 10^4 ergs.mm^-2 365 nm"}, "[4]": {"details": "20 min, 25.2 × 10^4 ergs.mm^-2 365 nm"}, "[5]": {"details": "30 min, 38.8 × 10^4 ergs.mm^-2 365 nm"}, "[6]": {"details": "40 min, 50.4 × 10^4 ergs.mm^-2 365 nm"}, "[7]": {"details": "60 min, 75.6 × 10^4 ergs.mm^-2 365 nm"}}, "data": [{"compound": "CCOC(=O)c1cc2cc3ccoc3cc2oc1=O", "note": "[Example 3-CPs, 3-carboethoxypsoralen]", "values": [{"measurement": "difference in photoreactivity with DNA in vitro, 3-CPs vs 8-MOP", "setting": "calf thymus DNA; in vitro (table 3)", "result": 4.8, "unit": "factor"}, {"measurement": "photoreactivity with native DNA, times lower than 8-MOP", "setting": "calf thymus DNA; initial part of the photoreaction", "result": "about 5 times"}, {"measurement": "Molecules 3-CPs/μg DNA", "setting": "yeast DNA; 5-60 min, no 365 nm light", "result": "0.012 Molecules 3-CPs/μg DNA × 10^14"}, {"measurement": "cpm for 10^8 cells", "setting": "yeast DNA; 5-60 min, no 365 nm light", "result": 67.75, "unit": "cpm for 10^8 cells"}, {"measurement": "μg 3-CPs/μg DNA", "setting": "yeast DNA; 5-60 min, no 365 nm light", "result": 0.05, "unit": "μg 3-CPs/μg DNA × 10^-2"}, {"measurement": "molecules linked to DNA per cell", "setting": "yeast DNA; 18.9×10^3 J/m^2, 5×10^-5 M", "result": "10.5×10^6 molecules per cell"}, {"measurement": "binding ratio: pyrimidine bases per 1 bound molecule", "setting": "yeast DNA; 18.9×10^3 J/m^2, 5×10^-5 M, on average", "result": 2, "unit": "pyrimidine bases"}, {"measurement": "Molecules 3-CPs/μg DNA", "setting": "yeast DNA; [1]", "result": "0.92 Molecules 3-CPs/μg DNA × 10^14"}, {"measurement": "cpm for 10^8 cells", "setting": "yeast DNA; [1]", "result": 5030.5, "unit": "cpm for 10^8 cells"}, {"measurement": "μg 3-CPs/μg DNA", "setting": "yeast DNA; [1]", "result": 3.9, "unit": "μg 3-CPs/μg DNA × 10^-2"}, {"measurement": "binding to DNA in vivo compared with in vitro", "setting": "yeast DNA; 365 nm light", "result": "higher in the in vivo condition than in vitro"}, {"measurement": "Molecules 3-CPs/μg DNA", "setting": "yeast DNA; [2]", "result": "1.34 Molecules 3-CPs/μg DNA × 10^14"}, {"measurement": "cpm for 10^8 cells", "setting": "yeast DNA; [2]", "result": 9409, "unit": "cpm for 10^8 cells"}, {"measurement": "μg 3-CPs/μg DNA", "setting": "yeast DNA; [2]", "result": 5.7, "unit": "μg 3-CPs/μg DNA × 10^-2"}, {"measurement": "Molecules 3-CPs/μg DNA", "setting": "yeast DNA; [3]", "result": "2.1 Molecules 3-CPs/μg DNA × 10^14"}, {"measurement": "cpm for 10^8 cells", "setting": "yeast DNA; [3]", "result": 11386.5, "unit": "cpm for 10^8 cells"}, {"measurement": "μg 3-CPs/μg DNA", "setting": "yeast DNA; [3]", "result": 9, "unit": "μg 3-CPs/μg DNA × 10^-2"}, {"measurement": "Molecules 3-CPs/μg DNA", "setting": "yeast DNA; [4]", "result": "2.8 Molecules 3-CPs/μg DNA × 10^14"}, {"measurement": "cpm for 10^8 cells", "setting": "yeast DNA; [4]", "result": 15650.2, "unit": "cpm for 10^8 cells"}, {"measurement": "μg 3-CPs/μg DNA", "setting": "yeast DNA; [4]", "result": 12.3, "unit": "μg 3-CPs/μg DNA × 10^-2"}, {"measurement": "Molecules 3-CPs/μg DNA", "setting": "yeast DNA; [5]", "result": "2.8 Molecules 3-CPs/μg DNA × 10^14"}, {"measurement": "cpm for 10^8 cells", "setting": "yeast DNA; [5]", "result": 15307, "unit": "cpm for 10^8 cells"}, {"measurement": "μg 3-CPs/μg DNA", "setting": "yeast DNA; [5]", "result": 12, "unit": "μg 3-CPs/μg DNA × 10^-2"}, {"measurement": "Molecules 3-CPs/μg DNA", "setting": "yeast DNA; [6]", "result": "2.6 Molecules 3-CPs/μg DNA × 10^14"}, {"measurement": "cpm for 10^8 cells", "setting": "yeast DNA; [6]", "result": 14248, "unit": "cpm for 10^8 cells"}, {"measurement": "μg 3-CPs/μg DNA", "setting": "yeast DNA; [6]", "result": 11, "unit": "μg 3-CPs/μg DNA × 10^-2"}, {"measurement": "Molecules 3-CPs/μg DNA", "setting": "yeast DNA; [7]", "result": "2.3 Molecules 3-CPs/μg DNA × 10^14"}, {"measurement": "cpm for 10^8 cells", "setting": "yeast DNA; [7]", "result": 16476, "unit": "cpm for 10^8 cells"}, {"measurement": "μg 3-CPs/μg DNA", "setting": "yeast DNA; [7]", "result": 10, "unit": "μg 3-CPs/μg DNA × 10^-2"}, {"measurement": "dark binding with DNA relative to that at lowest dose of irradiation", "setting": "yeast DNA; dark, 50 minutes", "result": "around 10%"}, {"measurement": "365 nm light dose up to which binding with DNA increases linearly, then levels off", "setting": "yeast DNA; in vivo", "result": "up to 25.2×10^3 J/m^2"}, {"measurement": "amount linked to DNA compared with RNA per cell", "setting": "yeast DNA; in vivo", "result": "about the same as that bound to RNA per cell"}, {"measurement": "amount linked to DNA relative to 8-MOP", "setting": "yeast DNA; in vivo", "result": "about 15 times more"}, {"measurement": "binding to DNA compared with 8-MOP", "setting": "yeast DNA; in vivo", "result": "binds to DNA much more efficiently than 8-MOP"}, {"measurement": "difference in photoreactivity with DNA in vivo, 3-CPs vs 8-MOP", "setting": "yeast DNA; in vivo", "result": 15, "unit": "factor"}, {"measurement": "difference in photoreactivity with DNA, 3-CPs vs 8-MOP", "setting": "yeast DNA; in vivo", "result": "≤ 20", "unit": "factor"}, {"measurement": "photoaffinity to DNA compared with RNA", "setting": "yeast DNA; molecular basis", "result": "much higher than to RNA"}, {"measurement": "difference in survival response, 3-CPs vs 8-MOP", "setting": "Saccharomyces cerevisiae", "result": 6, "unit": "factor"}, {"measurement": "dose-modifying factor for rad9-4 compared to wild type", "setting": "Saccharomyces cerevisiae", "result": "constant"}, {"measurement": "photobiological activity after previous exposure to light", "setting": "Saccharomyces cerevisiae", "result": "decline in the photobiological activity"}, {"measurement": "resistance to the killing effect compared with 8-MOP", "setting": "Saccharomyces cerevisiae", "result": "much higher than that expected from the photoreactivity"}, {"measurement": "shape of survival curve", "setting": "Saccharomyces cerevisiae", "result": "exponential survival curve"}, {"measurement": "survival level compared with 8-MOP", "setting": "Saccharomyces cerevisiae", "result": "still relatively high as compared to that for 8-MOP"}, {"measurement": "survivors", "setting": "Saccharomyces cerevisiae; saline, 5 min", "result": "10^-1"}, {"measurement": "concentration versus 365 nm light dose, log-log plot at given survival", "setting": "Saccharomyces cerevisiae; wild type and rad9-4", "result": "follows a linear function"}, {"measurement": "reciprocity between light dose and drug concentration for cell killing", "setting": "Saccharomyces cerevisiae; wild type and rad9-4", "result": "no reciprocity between the light dose and the drug concentration"}, {"measurement": "photosensitizing activity", "setting": "cutaneous tissue", "result": "completely inactive"}]}]}
